# Entries after “also recorded” stand apart in the source; their conditions may differ. Like-named read-outs stand apart in the source and are kept apart here. *1 amine or outer side, *2 acyl side, *3 side chain or, on linkers, in order; H or OH if unused. Where a SMILES comes first, the peptide text is derived from it. Bridges are numbered along the chain shown (N, C = ends). [ ]: non-standard residue; d: D form. The star is where a group is joined. pTerphenylCO(4''-OnC5H11) = CCCCCOc1ccc(-c2ccc(-c3ccc(C(=O)*)cc3)cc2)cc1; Orn(4R-OH,5R-OH) = O=C([C@H](C[C@@H](O)[C@@H](O)N[*:3])N[*:1])[*:2]; hTyr(3S-OH,4S-OH) = N[C@H](C(=O)O)[C@H](O)[C@@H](O)c1ccc(O)cc1; Pro(3S-OH,4S-Me) = C[C@H]1CN[C@H](C(=O)O)[C@H]1O; Hyp = O=C(O)[C@@H]1C[C@@H](O)CN1
# Columns and labels:
# zebrafish embryos = conditions: for Mortality rate (MR) / Pericardial effusion (percentage of treated larvae): 1 µM; for Mortality rate (MR): average percentage of larvae that died before imaging; for Effect on heart functionality: clinically relevant doses (Cmax); for Pericardial Effusion Rate(%): zebrafish, in vivo; for Overall effect on embryonic development / cardiovascular system: screening concentration; for Overall effect on embryonic development: clinically relevant concentrations (Cmax)
# zebrafish larvae = test: Behavioral assay (bright/dark locomotion test, DanioVision); conditions: for Effect on swimming behavior: screening concentration 1 µM (Ivermectin 0.5 µM)
# [1] = tested on: inflammatory and immune response gene expression; type: in vivo, zebrafish (Danio rerio); conditions: for Inflammatory response related gene expression upon SARS-CoV-2 spike protein treatment: with spike protein; for Inflammatory gene response in the absence of spike protein: without spike protein, vs DMSO
# [2] = read-out: Cmax (highest concentration detected in blood plasma), humans; cited from earlier work
# [3] = with SARS-CoV-2 spike protein, drug 48 h
molecule,measurement,setting,value
17α-Hydroxyprogesterone,Effect on body length,zebrafish embryos; 1 µM screening,larval overgrowth
S=C(NCc1ccc2c(c1)OCO2)N1CCN(c2ncnc3c2oc2ccccc23)CC1 [Amuvatinib],Effect on swimming behavior,zebrafish larvae,effect
"CCCCCOc1ccc(-c2ccc(-c3ccc(C(=O)N[C@H]4C[C@@H](O)[C@@H](O)NC(=O)[C@@H]5[C@@H](O)[C@@H](C)CN5C(=O)[C@H]([C@@H](C)O)NC(=O)[C@H]([C@H](O)[C@@H](O)c5ccc(O)cc5)NC(=O)[C@@H]5C[C@@H](O)CN5C(=O)[C@H]([C@@H](C)O)NC4=O)cc3)cc2)cc1 [Anidulafungin] ({pTerphenylCO(4''-OnC5H11)}-[Orn(4R-OH,5R-OH)]T[Hyp][hTyr(3S-OH,4S-OH)]T[Pro(3S-OH,4S-Me)]; lactam 1-C)",Effect on swimming behavior,zebrafish larvae,effect
Cc1cccc(/C=N/Nc2cc(N3CCOCC3)nc(OCCc3ccccn3)n2)c1 [Apilimod],Mortality rate (MR),zebrafish embryos,over 10%
same,Effect on swimming behavior,zebrafish larvae,effect
COc1ccc(CCN2CCC(Nc3nc4ccccc4n3Cc3ccc(F)cc3)CC2)cc1 [Astemizole],Pericardial effusion (percentage of treated larvae),zebrafish embryos,94.4%
same,Effect on ISV area,zebrafish embryos; 1 µM screening,negative effects
same,Effect on body length,zebrafish embryos; 1 µM screening,highest reduction
same,Mortality rate (MR),zebrafish embryos,over 10%
CCS(=O)(=O)N1CC(CC#N)(n2cc(-c3ncnc4[nH]ccc34)cn2)C1 [Baricitinib],Mean Mortality(%),"zebrafish embryos; at Cmax, mean of morphological and behavioral assay",18.3%
same,Effect on heart functionality,zebrafish embryos,reduced heart functionality
same,Pericardial Effusion Rate(%),zebrafish embryos,9.30%
same,ccl20a.3 levels,[1]; [3],significantly reduced
same,Inflammatory response related gene expression upon SARS-CoV-2 spike protein treatment,[1],counteracted
same,Inflammatory gene response in the absence of spike protein,[1],alter the inflammatory gene response
same,Cmax,[2],144 nM
same,Effect on motility / swimming behavior / embryo activity,zebrafish larvae; at Cmax,effects on embryo activity; also recorded: alterations; also recorded: affected
Nc1nc(Nc2ccc3c(c2)CC[C@@H](N2CCCC2)CC3)nn1-c1cc2c(nn1)-c1ccccc1CCC2 [Bemcentinib],Effect on swimming behavior,zebrafish larvae,effect
COc1cc2nccc(Oc3ccc(NC(=O)C4(C(=O)Nc5ccc(F)cc5)CC4)cc3)c2cc1OC [Cabozantinib],Effect on ISV formation,zebrafish embryos; 1 µM screening,strong inhibition
same,Effect on swimming behavior,zebrafish larvae,effect
CN(C)C(=O)COC(=O)Cc1ccc(OC(=O)c2ccc(NC(=N)N)cc2)cc1 [Camostat],Effect on swimming behavior,zebrafish larvae,effect
CC(C)C[C@H](NC(=O)[C@@H](NC(=O)c1cccc(-c2ccccc2)n1)[C@@H](C)O)B(O)O [Delanzomib],Effect on swimming behavior,zebrafish larvae,effect
NC(=O)c1nc(F)c[nH]c1=O [Favipiravir],Effect on body length,zebrafish embryos; 1 µM screening,mild effect
COc1ccc2cc1Oc1ccc(cc1)C[C@H]1c3cc(c(OC)cc3CCN1C)Oc1c(O)c(OC)cc3c1[C@H](C2)N(C)CC3 [Hanfangchin B],Effect on swimming behavior,zebrafish larvae,effect
CCN(CCO)CCCC(C)Nc1ccnc2cc(Cl)ccc12 (stereo not drawn) [Hydroxychloroquine],Effect on ISV area,zebrafish embryos; 1 µM screening,significant reductions
same,Effect on ejection fraction,zebrafish embryos; 1 µM screening,significant reductions
same,Overall effect on embryonic development / cardiovascular system,zebrafish embryos,mild defects on the cardiovascular system
Cc1cccc(C)c1OCC(=O)N[C@@H](Cc1ccccc1)[C@@H](O)C[C@H](Cc1ccccc1)NC(=O)[C@H](C(C)C)N1CCCNC1=O [Lopinavir],Effect on ejection fraction,zebrafish embryos; 1 µM screening,reduced
COC(=O)C1=C(C)NC(C)=C(C(=O)OCCN2CCN(C(c3ccccc3)c3ccccc3)CC2)C1c1cccc([N+](=O)[O-])c1 (stereo not drawn) [Manidipine],Mortality rate (MR),zebrafish embryos,over 10%
CO[C@@H]1[C@H](N(C)C(=O)c2ccccc2)C[C@H]2O[C@]1(C)n1c3ccccc3c3c4c(c5c6ccccc6n2c5c31)C(=O)NC4 [Midostaurin],Mortality rate (MR),zebrafish embryos,over 10%
CC(C)C(=O)OC[C@H]1O[C@@H](n2ccc(NO)nc2=O)[C@H](O)[C@@H]1O [Molnupiravir],Overall effect on embryonic development,zebrafish embryos,severe adverse effects
same,Pericardial Effusion Rate(%),zebrafish embryos,0.00%
same,ccl20a.3 levels,[1]; [3],significantly reduced
same,il4 expression,[1]; [3],successfully downregulated
same,ptg expression,[1]; [3],upregulated to control levels
same,Inflammatory response related gene expression upon SARS-CoV-2 spike protein treatment,[1],counteracted
same,Inflammatory gene response in the absence of spike protein,[1],alter the inflammatory gene response
same,Cmax,[2],40 nM
O=C(Nc1ccc([N+](=O)[O-])cc1Cl)c1cc(Cl)ccc1O [Niclosamide],Mortality rate (MR),zebrafish embryos,over 10%
O=C(Nc1cc(Cl)cc(Cl)c1O)c1c(O)c(Cl)cc(Cl)c1Cl [Oxyclozanide],Effect on swimming behavior,zebrafish larvae,effect
O=c1[nH]c2ccccc2n1C1CCN(CCCC(c2ccc(F)cc2)c2ccc(F)cc2)CC1 [Pimozide],Pericardial effusion (percentage of treated larvae),zebrafish embryos,100%
same,Effect on ISV area,zebrafish embryos; 1 µM screening,negative effects
same,Effect on body length,zebrafish embryos; 1 µM screening,highest reduction
same,Mortality rate (MR),zebrafish embryos,over 10%
Cc1ccc(C(=O)Nc2ccc(CN3CCN(C)CC3)c(C(F)(F)F)c2)cc1C#Cc1cnc2cccnn12 [Ponatinib],Pericardial effusion (percentage of treated larvae),zebrafish embryos,100%
same,Effect on body length,zebrafish embryos; 1 µM screening,highest reduction
same,Effect on swimming behavior,zebrafish larvae,effect
C[C@@H](c1nc(-c2ccc(C#N)cc2)cs1)[C@](O)(Cn1cncn1)c1ccc(F)cc1F [Ravuconazole],Effect on swimming behavior,zebrafish larvae,effect
CNC(=O)c1cc(Oc2ccc(NC(=O)Nc3ccc(Cl)c(C(F)(F)F)c3)c(F)c2)ccn1 [Regorafenib],Effect on ISV formation,zebrafish embryos; 1 µM screening,strong inhibition
CCC(CC)COC(=O)[C@H](C)N[P@](=O)(OC[C@H]1O[C@@](C#N)(c2ccc3c(N)ncnn23)[C@H](O)[C@@H]1O)Oc1ccccc1 [Remdesivir],Effect on ejection fraction,zebrafish embryos; at Cmax,decrease
same,Effect on heart rate,zebrafish embryos; at Cmax,decrease
same,Overall effect on embryonic development,zebrafish embryos,severe adverse effects
same,Effect on heart functionality,zebrafish embryos,reduced
same,Pericardial Effusion Rate(%),zebrafish embryos,7.69%
same,ptg expression,[1]; [3],upregulated to control levels
same,Inflammatory response related gene expression upon SARS-CoV-2 spike protein treatment,[1],counteracted
same,Inflammatory gene response in the absence of spike protein,[1],broadest effect; also recorded: alter the inflammatory gene response
same,Cmax,[2],4500 nM
NC(=O)c1ncn([C@@H]2O[C@H](CO)[C@@H](O)[C@H]2O)n1 [Ribavirin],Effect on ISV area,zebrafish embryos; 1 µM screening,mildly reduced
CC(C)c1nc(CN(C)C(=O)N[C@H](C(=O)N[C@@H](Cc2ccccc2)C[C@H](O)[C@H](Cc2ccccc2)NC(=O)OCc2cncs2)C(C)C)cs1 [Ritonavir],Effect on ejection fraction,zebrafish embryos; at Cmax,altered
same,Effect on heart rate,zebrafish embryos; at Cmax,altered
same,Overall effect on embryonic development,zebrafish embryos,overall little embryonic alterations
same,Pericardial Effusion Rate(%),zebrafish embryos,8.70%
same,Inflammatory response related gene expression upon SARS-CoV-2 spike protein treatment,[1],counteracted
same,Inflammatory gene response in the absence of spike protein,[1],alter the inflammatory gene response
same,Cmax,[2],15200 nM
CNC(=O)c1cc(Oc2ccc(NC(=O)Nc3ccc(Cl)c(C(F)(F)F)c3)cc2)ccn1 [Sorafenib],Effect on ISV formation,zebrafish embryos; 1 µM screening,strong inhibition
C=CC[C@@H]1/C=C(\C)C[C@H](C)C[C@H](OC)[C@H]2O[C@@](O)(C(=O)C(=O)N3CCCC[C@H]3C(=O)O[C@H](/C(C)=C/[C@@H]3CC[C@@H](O)[C@H](OC)C3)[C@H](C)[C@@H](O)CC1=O)[C@H](C)C[C@@H]2OC [Tacrolimus],Effect on ejection fraction,zebrafish embryos; 1 µM screening,increase
CCOC(=O)c1c(CSc2ccccc2)n(C)c2cc(Br)c(O)c(CN(C)C)c12 [Umifenovir],Effect on ISV area,zebrafish embryos; 1 µM screening,mildly reduced
Ivermectin,Mortality,zebrafish embryos; 0.5 µM,mortality disappeared
same,Effect on body length,zebrafish embryos; 1 µM screening,highest reduction
same,Mortality rate (MR),zebrafish embryos,over 10%
same,Overall effect on embryonic development / cardiovascular system,zebrafish embryos,severely affected embryonic development
same,Effects on larval behavior,zebrafish larvae; 0.5 µM,still observed effects
same,Effect on swimming behavior,zebrafish larvae,most severe effects

# From article PMC10562458, “Identification of side effects of COVID-19 drug candidates on embryogenesis using an integrated zebrafish screening platform” (Scientific Reports, 2023)
